In one data set the target is hAM1 receptor (Homo sapiens, UniProt O60895+Q16602). In words: cAMP assay for in vitro receptor activation, hAM1-R. Type of data set: cell-based. Particulars: cAMP assay, hAM1 receptor; read-out: hAM1R EC50. The method in brief:
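Stable hAM1 cells (monoclonal) plated 8000/well; buffer DPBS, 0.05% casein, 0.5 mM IBMX; cAMP read-out.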

Data set [1] in a line: Physical stability of peptide analogues (Thioflavin T fibrillation). Type of data set: physicochemical. Particulars: maximum ThT signal normalized between hAMY maximum and buffer background; 40° C., shaking, four days; pH 7 per table title. The method in brief:
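Maximum ThT emission at 480 nm, after LOESS smoothing, is given as percent of the span from buffer background to hAMY. Conditions: 50 mM buffer at pH 4 or 7, 4 μM dye, 40 °C, repeated shaking, readings every 10 min for four days.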

In the next data set the target is T1, hAMY3 receptor (Homo sapiens, UniProt O60896+P30988).
T1 sequence (P30988 25-474): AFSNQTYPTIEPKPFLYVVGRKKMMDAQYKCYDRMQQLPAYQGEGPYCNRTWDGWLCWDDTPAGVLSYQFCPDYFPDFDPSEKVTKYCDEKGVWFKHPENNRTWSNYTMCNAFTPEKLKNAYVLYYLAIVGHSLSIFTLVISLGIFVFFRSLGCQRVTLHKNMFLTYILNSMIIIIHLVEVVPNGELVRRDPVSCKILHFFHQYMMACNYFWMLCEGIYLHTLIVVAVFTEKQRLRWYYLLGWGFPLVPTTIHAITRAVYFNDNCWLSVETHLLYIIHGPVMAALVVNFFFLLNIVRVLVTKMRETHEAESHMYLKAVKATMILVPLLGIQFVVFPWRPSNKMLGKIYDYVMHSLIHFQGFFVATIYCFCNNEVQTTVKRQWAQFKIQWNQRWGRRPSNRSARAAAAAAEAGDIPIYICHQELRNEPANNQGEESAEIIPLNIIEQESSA
T1 sequence (O60896 24-148 partner): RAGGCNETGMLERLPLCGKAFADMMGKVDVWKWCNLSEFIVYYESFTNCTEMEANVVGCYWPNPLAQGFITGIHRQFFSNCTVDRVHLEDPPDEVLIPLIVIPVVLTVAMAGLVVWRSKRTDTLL
In words: cAMP assay for in vitro receptor activation, hAMY3-R. Particulars: cAMP assay, hAMY3 receptor; read-out: hAMY3R EC50. It counts as cell-based. In outline: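 Graded compound concentrations were applied for 30 min at room temperature to stably hAMY3-expressing cells in DPBS, 0.05% casein, 0.5 mM IBMX; cAMP detected by TR-FRET.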

Bridge positions count the residues as written; N and C are the ends. Square brackets hold non-standard residues; d marks the D form. Peptide text beside a SMILES is read from it. Hyp = O=C(O)[C@@H]1C[C@@H](O)CN1; Cit = NC(=O)NCCC[C@H](N)C(=O)O Bounds are passed on as bounds.

Chain of hAM1 receptor (Q16602 23-461): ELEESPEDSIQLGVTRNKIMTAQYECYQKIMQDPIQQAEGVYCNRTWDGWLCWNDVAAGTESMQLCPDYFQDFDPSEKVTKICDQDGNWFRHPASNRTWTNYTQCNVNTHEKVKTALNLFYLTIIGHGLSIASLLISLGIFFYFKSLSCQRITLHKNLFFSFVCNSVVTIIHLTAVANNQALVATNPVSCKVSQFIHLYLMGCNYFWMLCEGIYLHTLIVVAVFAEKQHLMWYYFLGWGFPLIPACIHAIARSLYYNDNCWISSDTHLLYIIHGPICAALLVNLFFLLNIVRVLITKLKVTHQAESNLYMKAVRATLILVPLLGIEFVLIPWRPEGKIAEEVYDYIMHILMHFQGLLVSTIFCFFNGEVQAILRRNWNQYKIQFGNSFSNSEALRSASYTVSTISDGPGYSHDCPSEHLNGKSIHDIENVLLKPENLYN
Chain of hAM1 receptor (O60895 43-175 partner): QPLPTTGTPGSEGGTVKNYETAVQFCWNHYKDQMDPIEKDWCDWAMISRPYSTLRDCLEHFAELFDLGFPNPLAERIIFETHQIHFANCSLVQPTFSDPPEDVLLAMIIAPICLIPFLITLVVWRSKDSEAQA

For the compound `CC[C@H](C)[C@H](NC(=O)[C@H](CCC(N)=O)NC(=O)[C@H](Cc1c[nH]cn1)NC(=O)[C@H](C)NC(=O)[C@H](CC(C)C)NC(=O)[C@H](CCCNC(N)=O)NC(=O)[C@H](CCC(N)=O)NC(=O)[C@@H](NC(=O)[C@@H](NC(=O)[C@@H]1CSSC[C@H](NC(=O)CN)C(=O)N[C@@H](CCCNC(=N)N)C(=O)N[C@@H](Cc2ccccc2)C(=O)NCC(=O)N[C@@H]([C@@H](C)O)C(=O)N1)[C@@H](C)O)C(C)C)C(=O)N[C@@H](Cc1ccc(O)cc1)C(=O)N[C@@H](CCC(N)=O)C(=O)N[C@@H](Cc1ccccc1)C(=O)N[C@H](C(=O)N[C@@H](CC(=O)O)C(=O)N[C@@H](CCCCN)C(=O)N[C@@H](CC(=O)O)C(=O)N[C@@H](CCCCN)C(=O)N[C@@H](CC(=O)O)C(=O)N[C@@H](CC(N)=O)C(=O)N[C@H](C(=O)N[C@@H](C)C(=O)N1CCC[C@H]1C(=O)N[C@@H](CCCNC(=N)N)C(=O)N[C@H](C(=O)N[C@@H](CCCCN)C(=O)N[C@H](C(=O)N[C@@H](CO)C(=O)N1CCC[C@H]1C(=O)N[C@@H](CC(N)=O)C(=O)NCC(=O)N1C[C@H](O)C[C@H]1C(N)=O)[C@@H](C)CC)[C@@H](C)O)C(C)C)[C@@H](C)O` [compound 275] (H-GCRFGTCTVQ[Cit]LAHQIYQFTDKDKDNVAPRTKISPNG[Hyp]-NH2; disulfide 2-7; N-terminus assumed), the EC50 is greater than 5000 nM on hAM1 receptor and 0.02 nM on hAMY3 receptor. The “Max ThT signal (%)” value in data set [1] came out at 19.850%.
For `CC[C@H](C)[C@H](NC(=O)[C@H](CCC(N)=O)NC(=O)[C@H](Cc1c[nH]cn1)NC(=O)[C@H](C)NC(=O)[C@H](CC(C)C)NC(=O)[C@H](CCCNC(N)=O)NC(=O)[C@H](CCC(N)=O)NC(=O)[C@@H](NC(=O)[C@@H](NC(=O)[C@@H]1CSSC[C@H](NC(=O)[C@@H](N)CCCCN)C(=O)N[C@@H](CC(N)=O)C(=O)N[C@@H]([C@@H](C)O)C(=O)N[C@@H](C)C(=O)N[C@@H]([C@@H](C)O)C(=O)N1)[C@@H](C)O)C(C)C)C(=O)N[C@@H](Cc1ccc(O)cc1)C(=O)N[C@@H](CCC(N)=O)C(=O)N[C@@H](C)C(=O)N[C@H](C(=O)N[C@@H](CC(=O)O)C(=O)N[C@@H](CCCCN)C(=O)N[C@@H](CC(=O)O)C(=O)N[C@@H](CCCCN)C(=O)N[C@@H](CC(=O)O)C(=O)N[C@@H](CC(N)=O)C(=O)N[C@H](C(=O)N[C@@H](C)C(=O)N1CCC[C@H]1C(=O)N1CCC[C@H]1C(=O)N[C@H](C(=O)N[C@@H](CC(N)=O)C(=O)N[C@H](C(=O)NCC(=O)N[C@@H](CO)C(=O)N[C@@H](CC(N)=O)C(=O)NCC(=O)N1C[C@H](O)C[C@H]1C(N)=O)C(C)C)[C@@H](C)O)C(C)C)[C@@H](C)O` [compound 276] (H-KCNTATCTVQ[Cit]LAHQIYQATDKDKDNVAPPTNVGSNG[Hyp]-NH2; disulfide 2-7; N-terminus assumed), the concentration for a half-maximal effect (EC50) was greater than 5000 nM at hAM1 receptor and 0.056 nM on hAMY3 receptor. Also, the “Max ThT signal (%)” value in data set [1] was 8.950%.
As for `CC[C@H](C)[C@H](NC(=O)[C@H](CC(N)=O)NC(=O)[C@@H](NC(=O)[C@H](CCCNC(=N)N)NC(=O)[C@@H]1CCCN1C(=O)[C@H](C)NC(=O)[C@@H](NC(=O)[C@H](CC(N)=O)NC(=O)[C@H](CC(=O)O)NC(=O)[C@H](CCCCN)NC(=O)[C@H](CC(=O)O)NC(=O)[C@H](CCCCN)NC(=O)[C@H](CC(=O)O)NC(=O)[C@@H](NC(=O)[C@H](Cc1ccccc1)NC(=O)[C@H](CCC(N)=O)NC(=O)[C@H](Cc1ccc(O)cc1)NC(=O)[C@@H](NC(=O)[C@H](CCC(N)=O)NC(=O)[C@H](Cc1c[nH]cn1)NC(=O)[C@H](C)NC(=O)[C@H](CC(C)C)NC(=O)[C@H](CCCNC(N)=O)NC(=O)[C@H](CCC(N)=O)NC(=O)[C@@H](NC(=O)[C@@H](NC(=O)[C@@H]1CSSC[C@H](NC(=O)CN)C(=O)N[C@@H](CCCNC(=N)N)C(=O)N[C@@H]([C@@H](C)O)C(=O)NCC(=O)N[C@@H]([C@@H](C)O)C(=O)N1)[C@@H](C)O)C(C)C)[C@@H](C)CC)[C@@H](C)O)C(C)C)[C@@H](C)O)C(=O)NCC(=O)N1CCC[C@H]1C(=O)N[C@@H](CCC(N)=O)C(=O)NCC(=O)N1C[C@H](O)C[C@H]1C(N)=O` [compound 280] (H-GCRTGTCTVQ[Cit]LAHQIYQFTDKDKDNVAPRTNIGPQG[Hyp]-NH2; disulfide 2-7; N-terminus assumed), the concentration for a half-maximal effect (EC50) is greater than 5000 nM on hAM1 receptor and 0.024 nM at hAMY3 receptor. In addition, in data set [1], the “Max ThT signal (%)” value was determined as 26.450%.
On to `CC[C@H](C)[C@H](NC(=O)[C@H](CCC(N)=O)NC(=O)[C@H](Cc1c[nH]cn1)NC(=O)[C@H](C)NC(=O)[C@H](CC(C)C)NC(=O)[C@H](CCCNC(N)=O)NC(=O)[C@H](CCC(N)=O)NC(=O)[C@@H](NC(=O)[C@@H](NC(=O)[C@@H]1CSSC[C@H](NC(=O)CN)C(=O)N[C@@H](CCCNC(=N)N)C(=O)N[C@@H]([C@@H](C)O)C(=O)NCC(=O)N[C@@H]([C@@H](C)O)C(=O)N1)[C@@H](C)O)C(C)C)C(=O)N[C@@H](Cc1ccc(O)cc1)C(=O)N[C@@H](CCC(N)=O)C(=O)N[C@@H](Cc1ccccc1)C(=O)N[C@H](C(=O)N[C@@H](CC(=O)O)C(=O)N[C@@H](CCCCN)C(=O)N[C@@H](CC(=O)O)C(=O)N[C@@H](CCCCN)C(=O)N[C@@H](CC(=O)O)C(=O)N[C@@H](CC(N)=O)C(=O)N[C@H](C(=O)N[C@@H](C)C(=O)N1CCC[C@H]1C(=O)N[C@@H](CCCNC(=N)N)C(=O)N[C@@H](CO)C(=O)N[C@@H](CC(N)=O)C(=O)N[C@H](C(=O)NCC(=O)N1CCC[C@H]1C(=O)N[C@@H](CCC(N)=O)C(=O)NCC(=O)N1C[C@H](O)C[C@H]1C(N)=O)C(C)C)C(C)C)[C@@H](C)O` [compound 281] (H-GCRTGTCTVQ[Cit]LAHQIYQFTDKDKDNVAPRSNVGPQG[Hyp]-NH2; disulfide 2-7; N-terminus assumed), for which the figures for the EC50 on hAM1 receptor and on hAMY3 receptor were greater than 5000 nM and 0.034 nM, respectively. For the same compound, the “Max ThT signal (%)” value in data set [1] is on record as 22.650%.
On to `CC[C@H](C)[C@H](NC(=O)[C@H](CCC(N)=O)NC(=O)[C@H](Cc1c[nH]cn1)NC(=O)[C@H](C)NC(=O)[C@H](CC(C)C)NC(=O)[C@H](CCCNC(N)=O)NC(=O)[C@H](CCC(N)=O)NC(=O)[C@@H](NC(=O)[C@@H](NC(=O)[C@@H]1CSSC[C@H](NC(=O)CN)C(=O)N[C@@H](CCCNC(=N)N)C(=O)N[C@@H](Cc2ccccc2)C(=O)NCC(=O)N[C@@H]([C@@H](C)O)C(=O)N1)[C@@H](C)O)C(C)C)C(=O)N[C@@H](Cc1ccc(O)cc1)C(=O)N[C@@H](CCC(N)=O)C(=O)N[C@@H](Cc1ccccc1)C(=O)N[C@H](C(=O)N[C@@H](CC(=O)O)C(=O)N[C@@H](CCCCN)C(=O)N[C@@H](CC(=O)O)C(=O)N[C@@H](CCCCN)C(=O)N[C@@H](CC(=O)O)C(=O)N[C@@H](CC(N)=O)C(=O)N[C@H](C(=O)N[C@@H](C)C(=O)N1CCC[C@H]1C(=O)N[C@@H](CCCNC(=N)N)C(=O)N[C@H](C(=O)N[C@@H](CC(N)=O)C(=O)N[C@H](C(=O)N[C@@H](CO)C(=O)N1CCC[C@H]1C(=O)N[C@@H](CCC(N)=O)C(=O)NCC(=O)N1C[C@H](O)C[C@H]1C(N)=O)C(C)C)[C@@H](C)O)C(C)C)[C@@H](C)O` [compound 283] (H-GCRFGTCTVQ[Cit]LAHQIYQFTDKDKDNVAPRTNVSPQG[Hyp]-NH2; disulfide 2-7; N-terminus assumed), for which the concentration giving a half-maximal response (EC50) is greater than 5000 nM on hAM1 receptor and 0.035 nM on hAMY3 receptor. In data set [1], the “Max ThT signal (%)” value was determined as 17.100%.
With `CC[C@H](C)[C@H](NC(=O)[C@H](CCC(N)=O)NC(=O)[C@H](Cc1c[nH]cn1)NC(=O)[C@H](C)NC(=O)[C@H](CC(C)C)NC(=O)[C@H](CCCNC(N)=O)NC(=O)[C@H](CCC(N)=O)NC(=O)[C@@H](NC(=O)[C@@H](NC(=O)[C@@H]1CSSC[C@H](NC(=O)CN)C(=O)N[C@@H](CCCNC(=N)N)C(=O)N[C@@H]([C@@H](C)O)C(=O)NCC(=O)N[C@@H]([C@@H](C)O)C(=O)N1)[C@@H](C)O)C(C)C)C(=O)N[C@@H](Cc1ccc(O)cc1)C(=O)N[C@@H](CCC(N)=O)C(=O)N[C@@H](Cc1ccccc1)C(=O)N[C@H](C(=O)N[C@@H](CC(=O)O)C(=O)N[C@@H](CCCCN)C(=O)N[C@@H](CC(=O)O)C(=O)N[C@@H](CCCCN)C(=O)N[C@@H](CC(=O)O)C(=O)N[C@@H](CC(N)=O)C(=O)N[C@H](C(=O)N[C@@H](C)C(=O)N1CCC[C@H]1C(=O)N[C@@H](CCCNC(=N)N)C(=O)N[C@@H](CO)C(=O)N[C@@H](CCCCN)C(=O)N[C@H](C(=O)NCC(=O)N1CCC[C@H]1C(=O)N[C@@H](CCC(N)=O)C(=O)NCC(=O)N[C@@H](Cc1ccc(O)cc1)C(N)=O)C(C)C)C(C)C)[C@@H](C)O` [compound 285] (H-GCRTGTCTVQ[Cit]LAHQIYQFTDKDKDNVAPRSKVGPQGY-NH2; disulfide 2-7; N-terminus assumed), the concentration for a half-maximal effect (EC50) was greater than 5000 nM at hAM1 receptor and 0.157 nM on hAMY3 receptor. Further, the “Max ThT signal (%)” value in data set [1] was 31.200%.

These data come from patent US12139520B2 (priority 2020, dated 2024).
